# Laboratory results as given in article PMC11823609, “Advancements in the fight against globally distributed OXA-48 carbapenemase: evaluating the new generation of carbapenemase inhibitors” (Antimicrobial Agents and Chemotherapy, 2025).
# Experiments:
# [1] = tested on: E. coli HB4 ΔompC/F; assay: microbe, parasite or virus in culture; type: cell-based, Escherichia coli; conditions: Escherichia coli
# Description: (§1) The E. coli HB4 strain was used to gain a more complete perspective, by evaluating the involvement in resistance of a low permeability background with the carbapenemase OXA-48, as well as coproduction of an ESBL and the carbapenemase; thus, the ESBL CTX-M-14 and OXA-48 were cloned together and separately into E. coli HB4. The characteristics of these strains and transformants are summarized in Table S1, and the cloning procedures are outlined in the supplemental methods.
# (§2) The MICs of each of the individual compounds (antibiotics or inhibitors) were also determined. The MICs were determined for the E. coli isogenic expressing OXA-48 (and both OXA-48 and CTX-M-14) to assess their activity against the carbapenemase; MICs were also determined for the 18 Enterobacterales clinical isolates in order to evaluate the new inhibitors against also their resistance concomitant mechanisms. The MICs were determined in triplicate experiments, and the EUCAST 13.0 clinical breakpoints were followed (http://www.eucast.org/clinical_breakpoints).
# (§3) For comparative evaluation of the activity of each inhibitor alone against the carbapenemase OXA-48, all inhibitors (at 4 mg/L) were tested in the presence of a carbapenem (ertapenem, adequate substrate) and a cephalosporin (ceftazidime, poor substrate) as reporter substrates. This prevented any possible masking effect produced by the different partner antibiotics. These assays were also performed with isogenic transformants and clinical isolates.
# [2] = tested on: E. coli HB4 ΔompC/F (OXA-48); assay: microbe, parasite or virus in culture; type: cell-based, Escherichia coli; conditions: Escherichia coli
# Description: as §1, §2, §3
# [3] = tested on: E. coli HB4 ΔompC/F (CTX-M-14); assay: microbe, parasite or virus in culture; type: cell-based, Escherichia coli; conditions: Escherichia coli
# Description: as §1, §2, §3
# [4] = tested on: E. coli HB4 ΔompC/F (CTX-M-14 + OXA-48); assay: microbe, parasite or virus in culture; type: cell-based, Escherichia coli
# Description: as §1, §2, §3
# [5] = tested on: E. coli TG1 and HB4 transformants; assay: MIC summary over E. coli transformants; type: cell-based, Escherichia coli; conditions: OXA-48-producing E. coli hosts; BLI 4 mg/L
# Description: as §1, §2, §3
# [6] = tested on: E. coli strain 103 (MLST 10, ESBL); assay: microbe, parasite or virus in culture; type: cell-based; conditions: Escherichia coli
# Experimental: (§4) The efficacy of these new BLIs was also evaluated against 18 genetically diverse WGS-characterized collection of OXA-48-positive Enterobacterales recovered as part of the Carbapenem-resistant Enterobacterales Genome Database Project (https://genomes.cnag.cat/incredble) listed in Table S2 ([13]). Combinations of clinical isolates (five pairs of Klebsiella pneumoniae, two pairs of Enterobacter cloacae, and two pairs of E. coli) were chosen for analysis: (i) nine strains carrying ESBLs; and (ii) nine strains (genetically closer available strains) without ESBLs.
# as §2, §3
# [7] = tested on: E. cloacae strain 231 (MLST 171, No ESBL); assay: microbe, parasite or virus in culture; type: cell-based; conditions: Enterobacter cloacae; E. cloacae 231; β-lactamase inhibitor alone; read-out: MIC
# Experimental: as §4, §2, §3
# [8] = tested on: K. pneumoniae strain 71 (MLST 15, No ESBL); assay: microbe, parasite or virus in culture; type: cell-based; conditions: Klebsiella pneumoniae; K. pneumoniae 71; β-lactamase inhibitor alone; read-out: MIC
# Experimental: as §4, §2, §3
# [9] = tested on: K. pneumoniae strain 238 (MLST 15, ESBL); assay: microbe, parasite or virus in culture; type: cell-based; conditions: Klebsiella pneumoniae
# Experimental: as §4, §2, §3
# [10] = tested on: K. pneumoniae strain 194 (MLST 392, No ESBL); assay: microbe, parasite or virus in culture; type: cell-based; conditions: Klebsiella pneumoniae; K. pneumoniae 194; β-lactamase inhibitor alone; read-out: MIC
# Experimental: as §4, §2, §3
# [11] = tested on: K. pneumoniae strain 125 (MLST 307, ESBL); assay: microbe, parasite or virus in culture; type: cell-based; conditions: Klebsiella pneumoniae
# Experimental: as §4, §2, §3
# [12] = tested on: E. cloacae strain 235 (MLST 171, ESBL); assay: microbe, parasite or virus in culture; type: cell-based; conditions: Enterobacter cloacae
# Experimental: as §4, §2, §3
# [13] = tested on: K. pneumoniae strain 170 (MLST 307, No ESBL); assay: microbe, parasite or virus in culture; type: cell-based; conditions: Klebsiella pneumoniae; K. pneumoniae 170; β-lactamase inhibitor alone; read-out: MIC
# Experimental: as §4, §2, §3
# [14] = tested on: E. cloacae strain 272 (MLST 78, ESBL); assay: microbe, parasite or virus in culture; type: cell-based; conditions: Enterobacter cloacae
# Experimental: as §4, §2, §3
# [15] = tested on: E. coli strain 177 (MLST 131, ESBL); assay: microbe, parasite or virus in culture; type: cell-based; conditions: Escherichia coli
# Experimental: as §4, §2, §3
# [16] = tested on: K. pneumoniae strain 19 (MLST 11, ESBL); assay: microbe, parasite or virus in culture; type: cell-based; conditions: Klebsiella pneumoniae
# Experimental: as §4, §2, §3
# [17] = tested on: K. pneumoniae strain 497 (MLST 11, No ESBL); assay: microbe, parasite or virus in culture; type: cell-based; conditions: Klebsiella pneumoniae; K. pneumoniae 497; β-lactamase inhibitor alone; read-out: MIC
# Experimental: as §4, §2, §3
# [18] = tested on: E. coli strain 224 (MLST 127, No ESBL); assay: microbe, parasite or virus in culture; type: cell-based; conditions: Escherichia coli; E. coli 224; β-lactamase inhibitor alone; read-out: MIC
# Experimental: as §4, §2, §3
# [19] = tested on: E. cloacae strain 281 (MLST 78, No ESBL); assay: microbe, parasite or virus in culture; type: cell-based; conditions: Enterobacter cloacae; E. cloacae 281; β-lactamase inhibitor alone; read-out: MIC
# Experimental: as §4, §2, §3
# [20] = tested on: K. pneumoniae strain 413 (MLST 147, ESBL); assay: microbe, parasite or virus in culture; type: cell-based; conditions: Klebsiella pneumoniae
# Experimental: as §4, §2, §3
# [21] = tested on: E. coli strain 264 (MLST 131, No ESBL); assay: microbe, parasite or virus in culture; type: cell-based; conditions: Escherichia coli; E. coli 264; β-lactamase inhibitor alone; read-out: MIC
# Experimental: as §4, §2, §3
# [22] = tested on: K. pneumoniae strain 23 (MLST 392, ESBL); assay: microbe, parasite or virus in culture; type: cell-based; conditions: Klebsiella pneumoniae
# Experimental: as §4, §2, §3
# [23] = tested on: K. pneumoniae strain 237 (MLST 147, No ESBL); assay: microbe, parasite or virus in culture; type: cell-based; conditions: Klebsiella pneumoniae; K. pneumoniae 237; β-lactamase inhibitor alone; read-out: MIC
# Experimental: as §4, §2, §3
# [24] = biological target: OXA-48 (Klebsiella pneumoniae, UniProt Q6XEC0); conditions: ref 26 Lahiri et al.; cited from earlier work
# [25] = tested on: E. coli TG1 (OXA-48); assay: microbe, parasite or virus in culture; type: cell-based, Escherichia coli; conditions: Escherichia coli
# Experimental: as §2, §3
# [26] = tested on: E. coli TG1; assay: microbe, parasite or virus in culture; type: cell-based; conditions: Escherichia coli, β-lactamase inhibitor alone
# Experimental: as §2, §3
# Chain of OXA-48 (Q6XEC0 23-265 limits assumed): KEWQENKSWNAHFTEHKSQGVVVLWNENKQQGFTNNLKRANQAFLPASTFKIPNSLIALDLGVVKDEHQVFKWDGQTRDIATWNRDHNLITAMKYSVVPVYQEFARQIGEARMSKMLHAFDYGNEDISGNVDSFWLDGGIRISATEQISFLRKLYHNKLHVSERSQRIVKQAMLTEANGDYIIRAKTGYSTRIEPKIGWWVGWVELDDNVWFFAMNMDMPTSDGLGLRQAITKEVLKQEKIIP
compound,measurement,setting,value
"NC(=O)[C@@H]1CC[C@@H]2CN1C(=O)N2OS(=O)(=O)O [Avibactam, avibactam]",MIC,[1],8 µg/mL
same,MIC,[2],8 µg/mL
same,MIC,[3],16 µg/mL
same,decrease of ertapenem MIC with BLI,"[4]; E. coli HB4 coproducing CTX-M-14 and OXA-48, BLI 4 mg/L",256 fold
same,MIC,[4]; Escherichia coli,16 µg/mL
same,decrease of ertapenem MIC with BLI,[5],8–256 fold
same,MIC,[6],32 µg/mL
same,MIC,[7],8 µg/mL
same,MIC,[8],32 µg/mL
same,MIC,[9],32 µg/mL
same,MIC,[10],16 µg/mL
same,MIC,[11],32 µg/mL
same,MIC,[12],32 µg/mL
same,MIC,[13],16 µg/mL
same,MIC,[14],32 µg/mL
same,MIC,[15],32 µg/mL
same,MIC,[16],≥ 128 µg/mL
same,MIC,[17],≥ 128 µg/mL
same,MIC,[18],16 µg/mL
same,MIC,[19],16 µg/mL
same,MIC,[20],64 µg/mL
same,MIC,[21],16 µg/mL
same,MIC,[22],16 µg/mL
same,MIC,[23],64 µg/mL
same,t1/2,[24],"1,000 min"
same,MIC,[25],4 µg/mL
same,MIC,[26],4 µg/mL
